Patent US20110172244A1 (IRM LLC, priority 2008, published 2011)

Biological target: T1, human GPR119 (Homo sapiens, UniProt Q8TDV5)
T1 construct: expressed in transfected cells
T1 sequence (Q8TDV5 1-335): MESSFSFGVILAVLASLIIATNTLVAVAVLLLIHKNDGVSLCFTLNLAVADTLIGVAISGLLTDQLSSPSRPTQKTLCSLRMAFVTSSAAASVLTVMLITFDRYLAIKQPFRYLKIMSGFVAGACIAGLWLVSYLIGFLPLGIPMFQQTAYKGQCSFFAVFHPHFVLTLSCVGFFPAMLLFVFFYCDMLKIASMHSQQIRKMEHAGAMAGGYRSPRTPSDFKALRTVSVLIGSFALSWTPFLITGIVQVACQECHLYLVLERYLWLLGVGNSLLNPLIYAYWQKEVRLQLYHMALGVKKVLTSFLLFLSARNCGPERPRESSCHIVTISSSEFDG
Test: Cyclic AMP assay in stable cell line (Flp-In-CHO-hGPR119, HTRF)
Type: cell-based
Conditions: Flp-In-CHO-hGPR119 cells, cAMP HTRF, 1 mM IBMX, 30 minutes at 37° C.; read-out: CHO-GPR119-HTRF (3158) EC50
Description: Generation of Stable Cell Line
Flp-In-CHO cells (Invitrogen, Cat. #R758-07) are maintained in Ham's F12 medium supplemented with 10% fetal bovine serum, 1% antibiotic mixture and 2 mM L-glutamine. The cells are transfected with a DNA mixture containing human GPR119 in pcDNA5/FRT vector and the pOG44 vector (1:9) using Fugene6 (Roche), according to the manufacturer's instruction. After 48 hours, the medium is changed to medium supplemented with 400 μg/ml hygromycin B to initiate the selection of stably transfected cells.
Cyclic AMP Assay in Stable Cell Line
To test the activity of compounds of the invention, Flp-In-CHO-hGPR119 cells are harvested and resuspended in DMEM plus 3% lipid-depleted fetal bovine serum. Forth μl of cells are plated in 384 well plates at a density of 15,000 cells/well. IBMX (3-isobutyl-1-methyl-xanthine) is added to the cells to a final concentration of 1 mM, followed by the addition of 500 nl of the compound to be tested. The cells are incubated at 37° C. for 30 minutes. Equal volume (20 μl) of the HTRF reagents, anti-cAMP-Cryptate and cAMP-XL665, are added to the cells. The plates are incubated at room temperature for 1 hour and read on a HTRF reader according to the manufacturer's instruction.

Structure (SMILES)	EC50 [nM]
O=C(c1[nH]c2ccc(F)cc2c1S(=O)(=O)c1ccc(Cl)cc1)N1CCC(Cc2ccccc2)CC1 [Example A1, (4-benzylpiperidin-1-yl)(3-(4-chlorophenylsulfonyl)-5-fluoro-1H-indol-2-yl)methanone]	12
O=C(c1[nH]c2ccccc2c1S(=O)(=O)c1ccc(Cl)cc1)N1CCN(Cc2c(F)cccc2Cl)CC1 [Example A2, (4-(2-chloro-6-fluorobenzyl)piperazin-1-yl)(3-(4-chlorophenylsulfonyl)-1H-indol-2-yl)methanone]	7
Cc1ccc(OC2CCN(C(=O)c3[nH]c4ccccc4c3S(=O)(=O)c3ccc(Cl)cc3)CC2)cc1 [Example A3, (3-(4-chlorophenylsulfonyl)-1H-indol-2-yl)(4-(p-tolyloxy)piperidin-1-yl)methanone]	9
O=C(c1[nH]c2ccccc2c1S(=O)(=O)c1ccc(Cl)cc1)N1CCC(Oc2ccc(C(F)(F)F)cc2)CC1 [Example A4, (3-(4-chlorophenylsulfonyl)-1H-indol-2-yl)(4-(4-(trifluoromethyl)phenoxy)piperidin-1-yl)methanone]	10
O=C(c1[nH]c2ccccc2c1S(=O)(=O)c1ccc(Cl)cc1)N1CCN(Cc2ccc(Cl)cc2)CC1 [Example A5, (4-(4-chlorobenzyl)piperazin-1-yl)(3-(4-chlorophenylsulfonyl)-1H-indol-2-yl)methanone]	17
Cc1ccc(SC2CCN(C(=O)c3[nH]c4ccccc4c3S(=O)(=O)c3ccc(Cl)cc3)CC2)cc1 [Example A6, (3-(4-chlorophenylsulfonyl)-1H-indol-2-yl)(4-(p-tolylthio)piperidin-1-yl)methanone]	18
O=C(c1[nH]c2ccccc2c1S(=O)(=O)c1ccc(Cl)cc1)N1CCC(CCc2ccccc2)CC1 [Example A7, (3-(4-chlorophenylsulfonyl)-1H-indol-2-yl)(4-phenethylpiperidin-1-yl)methanone]	18
O=C(c1[nH]c2ccccc2c1S(=O)(=O)c1ccc(Cl)cc1)N1CCN(CC2CCCCC2)CC1 [Example A11, (3-(4-chlorophenylsulfonyl)-1H-indol-2-yl)(4-(cyclohexylmethyl)piperazin-1-yl)methanone]	32
O=C(c1[nH]c2ccccc2c1S(=O)(=O)c1ccc(Cl)cc1)N1CCN(Cc2ccc3c(c2)OCO3)CC1 [Example A12, (4-(benzo[d][1,3]dioxol-5-ylmethyl)piperazin-1-yl)(3-(4-chlorophenylsulfonyl)-1H-indol-2-yl)methanone]	40
CN(Cc1ccccc1)C1CCN(C(=O)c2[nH]c3ccccc3c2S(=O)(=O)c2ccc(Cl)cc2)CC1 [Example A19, (4-(benzyl(methyl)amino)piperidin-1-yl)(3-(4-chlorophenylsulfonyl)-1H-indol-2-yl)methanone]	533
CN(CCOc1ccccc1)C(=O)c1[nH]c2ccccc2c1S(=O)(=O)c1ccc(Cl)cc1 [Example A20, 3-(4-chlorophenylsulfonyl)-N-methyl-N-(2-phenoxyethyl)-1H-indole-2-carboxamide]	192
O=C(c1[nH]c2ccccc2c1S(=O)(=O)c1ccc(Cl)cc1)N1CCN(Cc2ccncc2)CC1 [Example A22, (3-(4-chlorophenylsulfonyl)-1H-indol-2-yl)(4-(pyridin-4-ylmethyl)piperazin-1-yl)methanone]	435
O=C(NCCCCc1ccccc1)c1[nH]c2ccccc2c1S(=O)(=O)c1ccc(Cl)cc1 [Example A23, 3-(4-chlorophenylsulfonyl)-N-(4-phenylbutyl)-1H-indole-2-carboxamide]	396
O=C(c1[nH]c2ccccc2c1S(=O)(=O)c1ccc(Cl)cc1)N1CCCCC1 [Example A24, (3-(4-chlorophenylsulfonyl)-1H-indol-2-yl)(piperidin-1-yl)methanone]	574
O=C(c1oc2ccccc2c1S(=O)(=O)c1ccc(Cl)cc1)N1CCC(Oc2ccc(C(F)(F)F)cc2)CC1 [Example A29, (3-(4-Chlorophenylsulfonyl)benzofuran-2-yl)(4-(4-(trifluoromethyl)phenoxy)piperidin-1-yl)methanone]	54
O=C(c1oc2ccccc2c1S(=O)(=O)c1ccc(Cl)cc1)N1CCN(Cc2ccccc2)CC1 [Example A30, (4-benzylpiperazin-1-yl)(3-(4-chlorophenylsulfonyl)benzofuran-2-yl)methanone]	187
O=C(c1[nH]c2c(F)cccc2c1S(=O)(=O)c1ccc(Cl)cc1)N1CCC(Cc2ccccc2)CC1 [Example B1, (4-benzylpiperidin-1-yl)(3-(4-chlorophenylsulfonyl)-7-fluoro-1H-indol-2-yl)methanone]	22
O=C(c1[nH]c2ccccc2c1S(=O)(=O)Cc1ccccc1)N1CCC(Cc2ccccc2)CC1 [Example B2, (4-benzylpiperidin-1-yl)(3-benzylsulfonyl-1H-indol-2-yl)methanone]	210
O=C(c1[nH]c2ccccc2c1SC1CCCCC1)N1CCC(Cc2ccccc2)CC1 [Example B3, (4-benzylpiperidin-1-yl)(3-(cyclohexylthio)-1H-indol-2-yl)methanone]	755
O=C(c1[nH]c2ccccc2c1S(=O)(=O)C1CCCCC1)N1CCC(Cc2ccccc2)CC1 [Example B4]	149
Cn1c(C(=O)N2CCC(Cc3ccccc3)CC2)c(S(=O)(=O)c2ccc(Cl)cc2)c2ccccc21 [Example B5, (4-Benzylpiperidin-1-yl)(3-(4-chlorophenylsulfonyl)-1-methyl-1H-indol-2-yl)methanone]	169
O=C(c1[nH]c2ccccc2c1S(=O)(=O)CCc1ccccc1)N1CCC(Cc2ccccc2)CC1 [Example B11, (4-benzylpiperidin-1-yl)(3-(phenethylsulfonyl)-1H-indol-2-yl)methanone]	42
O=C(c1[nH]c2ccccc2c1Sc1ccccc1)N1CCC(Cc2ccccc2)CC1 [Example C1, (4-Benzylpiperidin-1-yl)(3-(phenylthio)-1H-indol-2-yl)methanone]	454
O=C(c1[nH]c2ccccc2c1Sc1ccc(Cl)cc1)N1CCC(Cc2ccccc2)CC1 [Example C2, (4-benzylpiperidin-1-yl)(3-(4-chlorophenylthio)-1H-indol-2-yl)methanone]	180
